Where a SMILES comes first, the peptide text is derived from it. The star is where a group is joined. Tos = Cc1ccc(S(=O)(=O)*)cc1; CH2Cl = ClC*
Key:
CNS-1 colonies = assay: Colony formation assay; format: cell-based, rat; conditions: SIXAC 1 μM, 5 days; colonies > 1 mm; control 13.9 ± 1.09; p = 0.033
Method: The cells were seeded in 6-well plates at a density of 100 cells/well. After 24 h, fresh medium with 1 μM SIXAC was added. Cells were incubated for 5 days, until colonies were formed. Cells were washed with PBS, stained with […] crystal violet (Sigma-Aldrich, C0075) in absolute ethanol for 20 min and then washed again with PBS and dried for 24 h. Colonies that were bigger than 1 mm were counted using Fiji software ([37]–[40]).

[1] = system: CNS-1 glioma in Lewis rats; assay: In-vivo imaging study (MRI) in CNS-1 GBM rat model
Method: Adult Lewis rats (270–335 g, Harlan, Jerusalem, Israel) were housed in a standard conditions and fed a standard diet. Water was available ad libitum. Ambient temperature was set to 22°C to 23°C with day/night light control. The protocols of this study were approved by the Sheba Medical Center Committee on the Use and Care of Animals (permit No: 972/15) according to the ARRIVE Guidelines. Maximum efforts were made in order to minimize suffering and pain. The humane endpoints were the inability to rise or ambulate and a severe weight loss (20% of initial body weight).
The rats were anesthetized via IM injection of Ketamine-Xylazine (100 mg/kg, 16 mg/kg, respectively). A midline scalp incision was made, and a 1 mm burr hole was drilled (coordinates 1 mm lateral × 3 mm posterior to the Bregma). Tumor implantation was performed using a 30 gauge needle attached to a 25 μl syringe containing 10 μl of CNS-1 pellet 5 × 10^7cells/ml. The rats were positioned into a stereotactic frame in order to inject the cells at the right corpus striatum 5.5 mm deep in the brain tissue. […] The needle was gently pulled out 1 min after the pump was stopped. The burr hole was then sealed with bone wax and the skin was sutured.
MRI was performed using a clinical interventional 1.5T MR system. The rats were anesthetized and Gd-based contrast agent was injected IP (Gd-DOTA, 0.02 mmol/kg, Dotarem, Guerbert). MRI sequences included contrast enhanced T1-weighted MRI for depiction of the tumor, T2-weighted MRI for depiction of edema and gradient-echo MRI for depiction of possible hemorrhages. The first MRI scan was used to rank the tumors into three categories based on the size evaluation in order to form groups with a similar distribution of initial tumor size. Regions of interest (ROIs) were plotted over enhanced T1 and T2 weighted MR images. The volume of the tumors, calculated from the T1-weighted images, was then subtracted from the enhancing volume, calculated from the T2-weighted images, in order to determine the volume of surrounding edema.
The animals were implanted with osmotic pumps attached to brain infusion tube (Alzet, Cupertino, CA, USA). Implantation was performed 5 days after tumor inoculation. […]
Rats were allocated to three groups. […] 7 days following induction of treatment (day 12) a follow-up MRI imaging (2nd) was performed and the size of the tumor and edema surrounding the tumor were analyzed by standard ROI manual techniques as described above. In order to eliminate the effect of initial tumor and edema sizes variance, the tumor and edema sizes increase were calculated by using the ratio of the 2nd MRI scan divided by the 1st MRI scan ([41], [42]).

## Cc1ccc(S(=O)(=O)N[C@@H](C)C(=O)N[C@H](C(=O)N[C@@H](CC(C)C)C(=O)N[C@@H](CC(=O)O)C(=O)N2CCC[C@H]2C(=O)N[C@@H](CCCNC(=N)N)C(=O)CCl)[C@@H](C)O)cc1 [SIXAC] (Tos-ATLDPR-CH2Cl)
CNS-1 colonies
  number of formed colonies: 10.5 ± 1.06
[1]; 2μg/kg/day vs. 0.2μg/kg/day and saline
  tumor enhancement means of ratios, moderate dose vs. low dose and saline (in words): non-significant reduction in tumor enhancement means of ratios
[1]; 2μg/kg/day vs. 0.2μg/kg/day and saline, p < 0.05
  edema means of ratios, moderate dose vs. low dose and saline (in words): Significant reduction in edema means of ratios
[1]; 2μg/kg/day, intracranial Alzet pump, 7 days, day 12/day 5, n = 9, control 8.8 ± 1.9, p < 0.04 (t-test)
  edema volume ratio (2nd/1st MRI, T2): 4.9 ± 1
[1]; 2μg/kg/day, intracranial Alzet pump, 7 days, day 12/day 5, n = 9, control 12.2 ± 2.4, p = 0.16 (t-test)
  tumor volume ratio (2nd/1st MRI, enhancing lesions, T1): 9.8 ± 1.2

Source: PMC6304418, “A Novel Compound Targeting Protease Receptor 1 Activators for the Treatment of Glioblastoma” (Frontiers in Neurology, 2018)
